This note sets out measurements from patent US8937065B2, “Compositions and methods for modulating a kinase” (Clevexel Pharma, priority 2011, dated 2015).

The test system of test [1] is JAK2 pathway, TF-1 cells. Briefly: JAK2/STAT5-irf1-bla TF1 screen. As to conditions: Homo sapiens, read-out: IC50 Cell-based selectivity: JAK2 pathway TF-1 cells. How it is done: Mechanism-based inhibition assays using compound 7A (Table 1) were performed using GeneBLAzer® Technology (Invitrogen Corporation), according to manufacturer specifications. Briefly, GeneBLAzer® Technology uses a mammalian-optimized Beta-lactamase reporter gene (bla) combined with a FRET-enabled substrate to provide reliable and sensitive detection in intact cells. Cells were loaded with an engineered fluorescent substrate containing two fluorophores, coumarin and fluorescein. Without bla expression, the substrate molecule remains intact. In this state, excitation of the coumarin results in fluorescence resonance energy transfer to the fluorescein moiety and emission of green light. But when bla is expressed, the substrate is cleaved, the fluorophores are separated, and energy transfer is disrupted. Excitation of the coumarin in the presence of Beta-lactamase activity results in a blue fluorescence signal. […]
General Activator Assay Protocol • 1. […] The assay, plate was read on a fluorescence plate reader (Tecan Safire^2) and the data is analyzed.
irf1-bla TF1 cells were thawed and resuspended in Assay Media (OPTI-MEM, 0.5% dialyzed FBS, 0.1 mM NEAA, 1 mM Sodium Pyruvate, 100 U/mL/100 μg/mL Pen/Strep) to a concentration of 1,562,500 cells/mL. […] The plate is read on a fluorescence plate reader.

Test [2] has as its system B-cell lymphoma (Daudi cell line) xenograft. The test can be described thus: Mouse xenograft study with B-cell lymphoma (Daudi cell line). The class given is in vivo. As to conditions: 28 days, Balb/c nude mice. How it is done: The anti-tumor effect of compounds of the invention can be evaluated in vivo. For example, the anti-tumor effect of compound 7A was determined using a mouse xenograft study with B-cell lymphoma (Daudi cell line). Mice (n=8 all) were administered compound 7A over a period of 28 days. The compound was dosed at 100 mg/kg IP QD and 300 mg/kg PO QD. Tumor volume was measured over time.
The Daudi cell line culture was prepared using Daudi cell line (ATCC, USA), RPMI 1640 medium (Invitrogen, USA), and FBS (Invitrogen, Australia). […]
The mice were weighed at each dosing and recorded every day. Tumor size was measured every other day in two dimensions using a caliper, and the volume was expressed in mm^3 using the formula: V=0.5 a×b^2 where a and b were the long and short diameters of the tumor, respectively. […] Tumor volume, weight of dissected tumors, and mouse body weight were measured and recorded. […]
The difference between the mean values of tumor volume in treated and vehicle groups was analyzed for significance using one way ANOVA test at each time point after log transformation. The difference between the mean values of tumor weight in treated and vehicle groups was analyzed for significance using t-test. […]

Test [3] has as its system Daudi cells. The test can be described thus: Daudi CTG assay (Daudi proliferation, 72 hr, Cell Titer Glo). The class given is cell-based. As to conditions: Homo sapiens. How it is done:
The compounds of the invention were tested on Daudi proliferation according to the procedure in Example 4 (for Daudi cells): Proliferation of RS4; 11, Ramos, Namalwa, RL, Molt-4 and Daudi cells. The compounds of the invention were tested on Daudi proliferation (72 hr), 3 fold dilution, and 9 points in duplicates. The top concentration for compounds of the invention was 10 uM; reference compound 7A top concentration was 10 uM; and Paclitaxel was 500 nM. Cell viability was determined using the Cell Titer Glo (CTG) reagent and detected by EnVision. EC50s were calculated by Prism 5.
The CellTiter-Glo™ Luminescent Cell Viability Assay uses ATP, a required co-factor of the luciferase reaction, as an indicator of metabolically active cells. The enzyme luciferase acts on luciferin in the presence of Mg^2+and ATP to produce oxyluciferin and to release energy in the form of luminescence. Since the luciferase reaction requires ATP, the luminescence produced is proportional to the amount of ATP present, an indicator of cellular metabolic activity.
On the technique in general: Cellular ATP, detected with luciferase, serves as a proxy for viable cell number.

A word on the IC50: it is the midpoint of a concentration-inhibition curve.

Read-outs that look alike come from different tables or passages of the source.

For the compound `O=C(CN1CCOCC1)Nc1cccc(-c2nc(-c3c[nH]c(C(=O)N4CCCC4)c3)cs2)c1` [7A, 2-morpholino-N-(3-(4-(5-(pyrrolidine-1-carbonyl)-1H-pyrrol-3-yl)thiazol-2-yl)phenyl)acetamide], the half-maximal inhibitory concentration (IC50) in test [1] is 49500 nM; in test [3] (Daudi, read-out: Daudi CTG assay IC50, historical data) it was 122 nM; in test [3] (Daudi proliferation 72 hr, control compounds, read-out: Daudi CTG assay control IC50), 102 nM. Further, the figures for the tumor growth inhibition in test [2] (100 mg/kg IP QD) and in test [2] (300 mg/kg PO QD) were 89% and 87%, respectively.
